{"source": "patent US10221172B2", "about": "“Benzothiazole and benzisothiazole-substituted compounds as mGluR4 allosteric potentiators, compositions, and methods of treating neurological dysfunction” (Vanderbilt University, priority 2015, dated 2019)", "target": "human mGluR4 (Homo sapiens (Human), UniProt Q14833)", "sequence (Q14833 33-912)": "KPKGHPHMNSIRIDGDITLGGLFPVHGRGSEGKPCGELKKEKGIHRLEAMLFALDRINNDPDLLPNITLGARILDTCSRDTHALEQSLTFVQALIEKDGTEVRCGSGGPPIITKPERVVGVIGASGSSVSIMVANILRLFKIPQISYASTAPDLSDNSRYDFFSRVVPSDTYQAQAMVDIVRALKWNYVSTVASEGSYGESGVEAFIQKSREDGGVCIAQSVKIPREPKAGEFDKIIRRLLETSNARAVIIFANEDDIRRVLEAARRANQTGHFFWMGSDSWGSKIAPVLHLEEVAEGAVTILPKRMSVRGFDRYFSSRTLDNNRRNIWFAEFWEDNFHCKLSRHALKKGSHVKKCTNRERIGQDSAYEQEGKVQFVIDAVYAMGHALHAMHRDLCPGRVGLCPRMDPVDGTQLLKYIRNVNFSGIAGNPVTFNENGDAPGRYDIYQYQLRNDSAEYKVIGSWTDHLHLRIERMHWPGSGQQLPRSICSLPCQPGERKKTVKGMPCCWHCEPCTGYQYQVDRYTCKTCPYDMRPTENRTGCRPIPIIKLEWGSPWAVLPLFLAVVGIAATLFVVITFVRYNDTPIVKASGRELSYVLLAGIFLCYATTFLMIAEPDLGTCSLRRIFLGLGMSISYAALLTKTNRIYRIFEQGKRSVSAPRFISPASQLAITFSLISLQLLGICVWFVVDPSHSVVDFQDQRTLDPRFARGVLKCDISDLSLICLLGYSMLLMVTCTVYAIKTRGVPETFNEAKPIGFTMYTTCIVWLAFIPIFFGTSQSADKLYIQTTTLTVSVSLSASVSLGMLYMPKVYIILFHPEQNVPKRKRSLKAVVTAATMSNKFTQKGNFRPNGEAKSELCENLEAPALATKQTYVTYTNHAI", "assay": "mGluR4 potentiation assay, CHO cells transfected with human mGluR4, Ca2+-sensitive dye, EC20 agonist", "assay_type": "cell-based", "conditions": "potentiation of mGluR4", "method": "The disclosed compounds and compositions can be evaluated for their ability to act as a potentiator of metabotropic glutamate receptor activity, in particular mGluR4 activity, by any suitable known methodology known in the art. For example, Chinese Hamster Ovary (CHO) cells transfected with human mGluR4 or HEK cells co-transfected with rat mGluR4 and the G-protein regulated Inwardly Rectifying Potassium channel (GIRK) were plated in clear bottom assay plates for assay in a Hamamatsu FDSS Fluorometric Plate Reader. The cells were loaded with either a Ca2+-sensitive fluorescent dye or the thallium responsive dye and the plates were washed and placed into a suitable kinetic plate reader. For human mGluR4 assays, a fluorescence baseline was established for 3-5 seconds, the disclosed compounds were then added to the cells, and the response in cells was measured. Approximately two and a half minutes later, a concentration of mGluR4 orthosteric agonist (e.g. glutamate or L-AP4) eliciting approximately 20% (EC20) of the maximal agonist response was added to the cells, and the response was measured. Two minutes later, a concentration of mGluR4 agonist (e.g. glutamate or L-AP4) eliciting 80% (EC80) of the maximal agonist response was added to the cells, and the response was measured. For rat mGluR4/GIRK experiments, a baseline was established for approximately five seconds, disclosed compounds were added, and either an EC20 or EC80 concentration of agonist was added approximately two and one half minutes later. Potentiation of the agonist response of mGluR4 by the disclosed compounds was observed as an increase in response to the EC20 concentration of agonist in the presence of compound compared to the response to agonist in the absence of compound. Similarly, antagonism of the agonist response of mGluR4 by the disclosed compounds was observed as a decrease in response to the EC80 concentration of agonist in the presence of compound compared to the response to agonist in the absence of compound.\nThe above described assay operated in two modes. In the first mode, a range of concentrations of the disclosed compounds are added to cells, followed by a single fixed concentration of agonist. If the compound acts as a potentiatior, an EC50 value for potentiation and a maximum extent of potentiation by the compound at this concentration of agonist is determined by non-linear curve fitting. If the compound acts as a noncompetitive antagonist, an IC50 value is determined by non-linear curve fitting. In the second mode, several fixed concentrations of the disclosed compounds are added to various wells on a plate, followed by a range in concentrations of agonist for each concentration of disclosed compound. The EC50 values for the agonist at each concentration of compound are determined by non-linear curve fitting. A decrease in the EC50 value of the agonist with increasing concentrations of the sample compound (a leftward shift of the agonist concentration-response curve) is an indication of the degree of mGluR4 potentiation at a given concentration of the sample compound. A decrease in the maximal response of the agonist with increasing concentrations of the sample compounds, with or without a rightward shift in agonist potency, is an indication of the degree of noncompetitive antagonism at mGluR4. The second mode also indicates whether the sample compounds also affect the maximum response to mGluR4 to agonists.", "key": {"[1]": {"conditions": "main compound table, species not given"}, "[2]": {"conditions": "summary list repeated at the end of the table, species not stated"}}}
{"smiles": "O=C(c1nsc2cc(Nc3n[nH]c4cccnc34)ccc12)N1CCSCC1", "note": "[Example 16, (6-((1H-pyrazolo [4,3-b]pyridin-3-yl)amino)benzo[d]isothiazol-3-yl)(thiomorpholino) methanone]", "values": [{"measurement": "EC50", "setting": "[1]", "value": 85, "unit": "nM"}, {"measurement": "EC50", "setting": "[2]", "value": 85, "unit": "nM"}]}
{"smiles": "CC(C)(C)C1CCN(Cc2nsc3cc(Nc4n[nH]c5cccnc45)cnc23)CC1", "note": "[Example 56, 3-((4-(tert-butyl)piperidin-1-yl)methyl)-N-(1H-pyrazolo[4,3-b]pyridin-3-yl)isothiazolo[4,5-b] pyridin-6-amine]", "values": [{"measurement": "EC50", "setting": "[1]", "value": 1390, "unit": "nM"}, {"measurement": "EC50", "setting": "[2]", "value": 1390, "unit": "nM"}]}
{"smiles": "CCc1nsc2cc(Nc3n[nH]c4cccnc34)cnc12", "note": "[Example 41, 3-ethyl-N-(1H-pyrazolo[4,3-b]pyridin-3-yl)isothiazolo [4,5-b]pyridin-6-amine]", "values": [{"measurement": "EC50", "setting": "[1]", "value": 38.3, "unit": "nM"}, {"measurement": "EC50", "setting": "[2]", "value": 38.3, "unit": "nM"}]}
{"smiles": "Cc1nsc2cc(Nc3n[nH]c4cccnc34)cnc12", "note": "[Example 39, 3-methyl-N-(1H-pyrazolo [4,3-b]pyridin-3-yl)isothiazolo[4,5-b] pyridin-6-amine]", "values": [{"measurement": "EC50", "setting": "[1]", "value": 157, "unit": "nM"}, {"measurement": "EC50", "setting": "[2]", "value": 157, "unit": "nM"}]}
{"smiles": "CCCc1nsc2cc(Nc3n[nH]c4ncccc34)ccc12", "note": "[Example 26, 3-propyl-N-(1H-pyrazolo[3,4-b]pyridin-3-yl)benzo[d]isothiazol-6-amine]", "values": [{"measurement": "EC50", "setting": "[1]", "value": 220, "unit": "nM"}, {"measurement": "EC50", "setting": "[2]", "value": 220, "unit": "nM"}]}
{"smiles": "c1ccc(-c2nsc3cc(Nc4n[nH]c5ncccc45)ccc23)cc1", "note": "[Example 44, 3-phenyl-N-(1H-pyrazolo [3,4-b]pyridin-3-yl)benzo[d]isothiazol-6-amine]", "values": [{"measurement": "EC50", "setting": "[1]", "value": 2040, "unit": "nM"}, {"measurement": "EC50", "setting": "[2]", "value": 2040, "unit": "nM"}]}
{"smiles": "C[C@H]1CN(Cc2nsc3cc(Nc4n[nH]c5cccnc45)cnc23)CCO1", "note": "[Example 59, (S)-3-((2-methylmorpholino)methyl)-N-(1H-pyrazolo[4,3-b]pyridin-3-yl)isothiazolo[4,5-b] pyridin-6-amine]", "values": [{"measurement": "EC50", "setting": "[1]", "value": 353, "unit": "nM"}, {"measurement": "EC50", "setting": "[2]", "value": 353, "unit": "nM"}]}
{"smiles": "CC(C)(C)c1nsc2cc(Nc3n[nH]c4cccnc34)ccc12", "note": "[Example 25, 3-(tert-butyl)-N-(1H-pyrazolo[4,3-b]pyridin-3-yl)benzo[d]isothiazol-6-amine]", "values": [{"measurement": "EC50", "setting": "[2]", "value": 329, "unit": "nM"}]}
{"smiles": "O=C(c1nsc2cc(Nc3n[nH]c4cccnc34)ccc12)N1CCS(=O)(=O)CC1", "note": "[Example 8, (6-((1H-pyrazolo [4,3-b]pyridin-3-yl)amino)benzo[d]isothiazol-3-yl)(1,1-dioxido-thiomorpholino) methanone]", "values": [{"measurement": "EC50", "setting": "[1]", "value": 136, "unit": "nM"}, {"measurement": "EC50", "setting": "[2]", "value": 136, "unit": "nM"}]}
{"smiles": "CN(Cc1nsc2cc(Nc3n[nH]c4cccnc34)cnc12)C1CC(F)(F)C1", "note": "[Example 52, 3-(((3,3-difluoro-cyclobutyl) (methyl)amino)methyl)-N-(1H-pyrazolo[4,3-b]pyridin-3-yl)isothiazolo[4,5-b] pyridin-6-amine]", "values": [{"measurement": "EC50", "setting": "[1]", "value": 334, "unit": "nM"}, {"measurement": "EC50", "setting": "[2]", "value": 334, "unit": "nM"}]}
{"smiles": "O=C(c1nsc2cc(Nc3n[nH]c4cccnc34)ccc12)N1CCC(F)CC1", "note": "[Example 20, (6-((1H-pyrazolo [4,3-b]pyridin-3-yl)amino)benzo [d]isothiazol-3-yl) (4-fluoropiperidin-1-yl)methanone]", "values": [{"measurement": "EC50", "setting": "[1]", "value": 249, "unit": "nM"}, {"measurement": "EC50", "setting": "[2]", "value": 249, "unit": "nM"}]}
{"smiles": "c1cnc2c(Nc3ccc4c(C5CC5)nsc4c3)n[nH]c2c1", "note": "[Example 36, 3-cyclopropyl-N-(1H-pyrazolo [4,3-b]pyridin-3-yl) benzo[d]isothiazol-6-amine]", "values": [{"measurement": "EC50", "setting": "[1]", "value": 78.2, "unit": "nM"}, {"measurement": "EC50", "setting": "[2]", "value": 78.2, "unit": "nM"}]}
{"smiles": "CN1CCC2(CCN(C(=O)c3nsc4cc(Nc5n[nH]c6nccnc56)ccc34)CC2)C1=O", "note": "[Example 31, 8-(6-((1H-pyrazolo[3,4-b]pyrazin-3-yl)amino)benzo[d]isothiazole-3-carbonyl)-2-methyl-2,8-diazaspiro[4.5]decan-1-one]", "values": [{"measurement": "EC50", "setting": "[1]", "value": 1210, "unit": "nM"}, {"measurement": "EC50", "setting": "[2]", "value": 1210, "unit": "nM"}]}
{"smiles": "O=C(c1nsc2cc(Nc3n[nH]c4cccnc34)ccc12)N1CCCC(F)(F)C1", "note": "[Example 9, (6-((1H-pyrazolo [4,3-b]pyridin-3-yl)amino)benzo[d]isothiazol-3-yl) (3,3-difluoropiperidin-1-yl)methanone]", "values": [{"measurement": "EC50", "setting": "[1]", "value": 233, "unit": "nM"}, {"measurement": "EC50", "setting": "[2]", "value": 233, "unit": "nM"}]}
{"smiles": "CC(C)(O)c1nsc2cc(Nc3n[nH]c4cccnc34)ccc12", "note": "[Example 38, 2-(6-((1H-pyrazolo [4,3-b]pyridin-3-yl)amino)benzo[d]isothiazol-3-yl)propan-2-ol]", "values": [{"measurement": "EC50", "setting": "[1]", "value": 1030, "unit": "nM"}, {"measurement": "EC50", "setting": "[2]", "value": 1030, "unit": "nM"}]}
